From PubChem BioAssay AID434987 (Southern Research Specialized Biocontainment Screening …, 2010) come the findings set out here.

The structures appear in SMILES notation. Calls of active or inactive are those of the source. No rule for the calls is given here. A value given as a limit tells only on which side of the number the result lay.

The test system of this assay is M. tuberculosis H37Rv growth inhibition with meropenem. Kind of assay: dose response, H37Rv, with and without meropenem (AID 434987).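 Also: growth over 7 days at 37 °C before Alamar Blue read on day 9.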
[1] abbreviates: M. tuberculosis H37Rv growth inhibition, measured here: IC50 without meropenem.
Where [2] appears, read: M. tuberculosis H37Rv growth inhibition, measured here: IC90 without meropenem.
Where [3] appears, read: measured here: IC90 with meropenem.

What is called IC50 is the concentration needed to halve the response being measured. As usually defined, the IC90 is the concentration needed for an effect of 90%. With `Cc1ccc(NC(=O)/C=C\C(=O)O)c([N+](=O)[O-])c1`, the IC50 is 56.7 µM (inactive). The compound also returned an IC50 under setting [1] of 95.7 µM. The compound also registered an IC90 under setting [2] of over 100 µM. The concentration for an effect of 90% (IC90) under setting [3] is over 100 µM.
`COc1cccc(NC(=S)Nc2cc(C)cc(C)n2)c1`: the concentration for half-maximal inhibition (IC50) is 6.41 µM. The IC50 under setting [1] is over 100 µM. The same compound showed a 90% effect concentration (IC90) under setting [2] of over 100 µM. Further, the IC90 under setting [3] is over 100 µM.
`O=C(OCC(=O)N1CCN(C(=O)c2ccco2)CC1)c1cc(-c2ccco2)nc2ccccc12`: the IC50 was 99.1 µM (inactive). The compound further registered an IC50 under setting [1] of over 100 µM. Further, the IC90 under setting [2] is over 100 µM. Besides, under setting [3], the IC90 is over 100 µM.
Regarding `Cn1c(/C=N/c2nc3ccccc3[nH]2)nc2ccccc21`, the half-inhibitory concentration (IC50) is under 0.2 µM. The 50% inhibitory concentration (IC50) under setting [1] amounted to 3.82 µM. Moreover, the IC90 under setting [2] was over 100 µM. Besides, the IC90 under setting [3] is 4.17 µM.
`O=C(NN=C1CCCC1)c1cccs1`: the IC50 is 23.6 µM (inactive). For the same compound, the 50% inhibitory concentration (IC50) under setting [1] came to 50.3 µM. In addition, under setting [2], the 90% effect concentration (IC90) was over 100 µM. The 90% effect concentration (IC90) under setting [3] was over 100 µM.
Regarding `N#C/C(=C(/O)COC(=O)CCc1ccc(S(=O)(=O)N2CCOCC2)cc1)c1nc2ccccc2[nH]1`, the IC50 was 46.4 µM (inactive). This compound came in with an IC50 under setting [1] of over 100 µM. The IC90 under setting [2] was over 100 µM. The compound further displayed an IC90 under setting [3] of over 100 µM.
Consider `CCC(CC)Nc1ccc(C(CC(N)=O)NC(=O)c2ccccc2)cc1[N+](=O)[O-]` (configuration not stated), for which the IC50 is > 100 µM (inactive). Under setting [1], this compound had an IC50 of over 100 µM. Besides, under setting [2], the IC90 is over 100 µM. The same compound yielded an IC90 under setting [3] of over 100 µM.
With `O=C(/C=C/c1cc(Br)ccc1F)OCC(=O)N1CCCC1`, the IC50 is > 100 µM (inactive). For the same compound, under setting [1], the IC50 was over 100 µM. Moreover, the concentration for an effect of 90% (IC90) under setting [2] is over 100 µM. The same compound yielded a 90% effect concentration (IC90) under setting [3] of over 100 µM.
Consider `C[C@H](NC(=O)c1[nH]cnc1C(=O)Nc1cccc(Cl)c1)c1ccccc1`, for which the IC50 was 3.59 µM. Besides, the IC50 under setting [1] is over 100 µM. Moreover, the IC90 under setting [2] is over 100 µM. Further, under setting [3], the IC90 was over 100 µM.
As to `O=C1C(Cl)=C(N2CCCCCC2)C(=O)N1c1ccc(Br)cc1`, the IC50 is 7.59 µM (inactive). Under setting [1], this compound registered a half-maximal inhibitory concentration (IC50) of 18.3 µM. Moreover, under setting [2], the IC90 was over 100 µM. For the same compound, the IC90 under setting [3] is 19.4 µM.
Turning to `CC1=NN(c2ccccc2)C(=O)C1C=Nc1ccccc1O` (configuration not stated), the IC50 was > 100 µM (inactive). Under setting [1], this compound yielded an IC50 of over 100 µM. The concentration for an effect of 90% (IC90) under setting [2] is over 100 µM. This compound showed a 90% effect concentration (IC90) under setting [3] of over 100 µM.
As for `Cc1ccccc1C(=O)NC(=S)Nc1sc2c(c1C#N)CCC(C)C2` (configuration not stated), the IC50 is > 100 µM (inactive). Under setting [1], this compound showed an IC50 of over 100 µM. For the same compound, under setting [2], the IC90 is over 100 µM. Moreover, under setting [3], the IC90 is over 100 µM.
Turning to `O=c1[nH]c(CN(CCO)CCO)nc2c1C1(CCCCC1)Cc1ccccc1-2`, the half-maximal inhibitory concentration (IC50) is 19.6 µM. This compound also had a concentration for half-maximal inhibition (IC50) under setting [1] of over 100 µM. This compound displayed an IC90 under setting [2] of over 100 µM. This compound registered an IC90 under setting [3] of over 100 µM.
For `CCOCC(=O)N1CCN(c2ccc(F)cc2)CC1`, the IC50 is 33.8 µM. Under setting [1], this compound yielded a half-maximal inhibitory concentration (IC50) of 84.1 µM. Further, the 90% effect concentration (IC90) under setting [2] was over 100 µM. The same compound returned an IC90 under setting [3] of over 100 µM.
Regarding `O=C(CSc1nnc(SCc2ccccc2)s1)N/N=C/c1ccc(Cl)cc1Cl`, the IC50 is 72.2 µM (inactive). This compound yielded an IC50 under setting [1] of over 100 µM. The concentration for an effect of 90% (IC90) under setting [2] was over 100 µM. The same compound gave a concentration for an effect of 90% (IC90) under setting [3] of over 100 µM.
Take `CN(C)CC(=O)Nc1nc(-c2ccccc2)cs1`: the 50% inhibitory concentration (IC50) was 10.5 µM. The same compound registered an IC50 under setting [1] of 83 µM. Moreover, under setting [2], the IC90 is over 100 µM. Also, the IC90 under setting [3] was over 100 µM.
With `CC(=O)c1ccc(N2CCN(c3ncc(C(F)(F)F)cc3Cl)CC2)cc1`, the IC50 was > 100 µM (inactive). In addition, under setting [1], the IC50 was over 100 µM. Besides, the IC90 under setting [2] is over 100 µM. Further, the concentration for an effect of 90% (IC90) under setting [3] was over 100 µM.
For the compound `N#Cc1c(C(F)(F)F)cc(-c2ccccc2)nc1SCC(=O)Nc1sc2c(c1C#N)CCC2`, the IC50 is > 100 µM (inactive). The half-inhibitory concentration (IC50) under setting [1] is over 100 µM. The compound further showed a concentration for an effect of 90% (IC90) under setting [2] of over 100 µM. Under setting [3], this compound gave a 90% effect concentration (IC90) of over 100 µM.
As to `Cc1sc2nc(C(C)Nc3ccccc3N3CCOCC3)[nH]c(=O)c2c1C` (configuration not stated), the IC50 is > 100 µM (inactive). Besides, under setting [1], the IC50 was over 100 µM. Under setting [2], the IC90 was over 100 µM. Moreover, the IC90 under setting [3] is over 100 µM.
With `O=C1CC(Nc2ccc(N3CCOCC3)cc2)C(=O)N1C1CCCCC1` (configuration not stated), the IC50 was > 100 µM (inactive). Besides, under setting [1], the IC50 was over 100 µM. Under setting [2], this compound came in with an IC90 of over 100 µM. Under setting [3], the 90% effect concentration (IC90) is over 100 µM.
`O=C(CCSc1ccc(Cl)c(Cl)c1)NC12CC3CC(CC(C3)C1)C2`: the IC50 was 11.6 µM. Moreover, the 50% inhibitory concentration (IC50) under setting [1] is 66.3 µM. Under setting [2], this compound came in with an IC90 of over 100 µM. This compound also had a concentration for an effect of 90% (IC90) under setting [3] of 12.3 µM.
For the compound `CCCCOc1ccc(/C=N/Nc2cc(N3CCOCC3)nc(C)n2)cc1`, the IC50 was > 100 µM (inactive). For the same compound, under setting [1], the IC50 is over 100 µM. Besides, the IC90 under setting [2] is over 100 µM. This compound returned a concentration for an effect of 90% (IC90) under setting [3] of over 100 µM.
Take `CC(C)CCSc1nc(N2CCOCC2)c2c(c1C#N)CC(C)(C)OC2`: the IC50 was 78.2 µM (inactive). The compound further yielded an IC50 under setting [1] of over 100 µM. Under setting [2], this compound returned an IC90 of over 100 µM. The IC90 under setting [3] is over 100 µM.
